From ChEMBL document CHEMBL1201862, “PubChem BioAssay data set” (2004)
The source made the active and inactive calls.

Assays:
[1] = molecular target: T1, Glutathione-S-transferase (Schistosoma japonicum, UniProt Q26513); assay: biotin-GST/anti-GST TR-FRET signal inhibitors, dose response, artefact control for Vif-APOBEC3G degradation inhibitor project, biochemical (AID 1117362); assay type: functional
T1 sequence (Q26513 whole entry): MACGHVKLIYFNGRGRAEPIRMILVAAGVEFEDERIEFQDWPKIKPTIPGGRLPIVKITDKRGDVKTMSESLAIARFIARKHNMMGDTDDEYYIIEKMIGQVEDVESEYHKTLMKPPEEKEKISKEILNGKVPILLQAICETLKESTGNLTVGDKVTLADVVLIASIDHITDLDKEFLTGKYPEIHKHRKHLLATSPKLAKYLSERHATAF

[2] = molecular target: NAD-dependent protein deacylase sirtuin-5, mitochondrial (Homo sapiens, UniProt Q9NXA8); assay: SIRT5 desuccinylase inhibitors, dose response, biochemical, fluorescence imaging, cherry-pick, set 5 (AID 720591);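 note: desuccinylation of succinyl peptide AMC substrate read as fluorescence after trypsin release; potency of inhibitors that lower fluorescence and may act on trypsin instead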
NAD-dependent protein deacylase sirtuin-5, mitochondrial, sequence (Q9NXA8 whole entry): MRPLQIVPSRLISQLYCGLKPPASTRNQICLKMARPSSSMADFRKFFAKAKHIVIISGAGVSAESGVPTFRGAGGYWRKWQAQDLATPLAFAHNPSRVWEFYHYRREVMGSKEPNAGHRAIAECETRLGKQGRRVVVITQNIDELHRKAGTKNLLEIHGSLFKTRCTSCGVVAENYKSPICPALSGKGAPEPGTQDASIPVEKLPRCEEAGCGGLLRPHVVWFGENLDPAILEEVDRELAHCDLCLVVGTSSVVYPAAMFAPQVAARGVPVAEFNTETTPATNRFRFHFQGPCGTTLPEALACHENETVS

[3] = molecular target: T2, Rac GTPase-activating protein 1 (Homo sapiens, UniProt Q9H0H5); assay: MgcRacGAP GTPase-activating activity inhibitors, confirmation, biochemical, ADP Hunter fluorescence, primary and confirmatory (AID 624330); assay type: functional
T2 sequence (Q9H0H5 whole entry): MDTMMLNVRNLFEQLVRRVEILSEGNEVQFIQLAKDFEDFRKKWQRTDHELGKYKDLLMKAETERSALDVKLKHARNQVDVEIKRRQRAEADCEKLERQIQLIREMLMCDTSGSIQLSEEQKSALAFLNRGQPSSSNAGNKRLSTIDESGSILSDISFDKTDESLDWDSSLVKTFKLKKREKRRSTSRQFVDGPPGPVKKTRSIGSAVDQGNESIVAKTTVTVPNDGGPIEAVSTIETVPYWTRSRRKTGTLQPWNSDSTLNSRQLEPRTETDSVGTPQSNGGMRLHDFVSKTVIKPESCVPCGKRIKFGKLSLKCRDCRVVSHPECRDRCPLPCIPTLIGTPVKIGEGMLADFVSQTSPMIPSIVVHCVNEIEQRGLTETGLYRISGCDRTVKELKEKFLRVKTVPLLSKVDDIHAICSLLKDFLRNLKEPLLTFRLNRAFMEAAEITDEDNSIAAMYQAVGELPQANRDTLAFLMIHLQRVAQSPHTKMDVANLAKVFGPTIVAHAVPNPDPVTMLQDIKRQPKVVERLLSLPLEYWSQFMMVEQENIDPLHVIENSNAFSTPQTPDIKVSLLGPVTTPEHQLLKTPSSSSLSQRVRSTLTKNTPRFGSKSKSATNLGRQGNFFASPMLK

[4] = molecular target: Mitogen-activated protein kinase 10 (Homo sapiens, UniProt P53779); assay: Dose response biochemical screening assay for inhibitors of c-Jun N-Terminal Kinase 3 (JNK3). [Related pubchem assays: 746 ]
Mitogen-activated protein kinase 10, sequence (P53779 whole entry): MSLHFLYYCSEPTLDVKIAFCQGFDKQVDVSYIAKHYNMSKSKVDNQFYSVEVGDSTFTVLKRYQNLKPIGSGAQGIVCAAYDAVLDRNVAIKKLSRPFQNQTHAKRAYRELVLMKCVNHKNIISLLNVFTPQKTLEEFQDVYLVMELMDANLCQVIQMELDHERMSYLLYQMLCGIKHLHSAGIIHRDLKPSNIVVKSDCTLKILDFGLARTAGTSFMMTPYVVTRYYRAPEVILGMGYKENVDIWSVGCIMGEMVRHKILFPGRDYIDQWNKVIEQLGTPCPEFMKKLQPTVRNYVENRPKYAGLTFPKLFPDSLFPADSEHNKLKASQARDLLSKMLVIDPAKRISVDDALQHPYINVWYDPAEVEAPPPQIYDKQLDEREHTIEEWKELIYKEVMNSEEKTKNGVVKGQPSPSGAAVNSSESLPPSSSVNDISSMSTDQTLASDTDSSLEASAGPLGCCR

[5] = molecular target: Large T antigen (Simian virus 40, UniProt P03070); assay type: functional, Betapolyomavirus macacae;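 note: Confirmatory-stage PubChem screen for compounds that inhibit SV40 T antigen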
Large T antigen, sequence (P03070 whole entry): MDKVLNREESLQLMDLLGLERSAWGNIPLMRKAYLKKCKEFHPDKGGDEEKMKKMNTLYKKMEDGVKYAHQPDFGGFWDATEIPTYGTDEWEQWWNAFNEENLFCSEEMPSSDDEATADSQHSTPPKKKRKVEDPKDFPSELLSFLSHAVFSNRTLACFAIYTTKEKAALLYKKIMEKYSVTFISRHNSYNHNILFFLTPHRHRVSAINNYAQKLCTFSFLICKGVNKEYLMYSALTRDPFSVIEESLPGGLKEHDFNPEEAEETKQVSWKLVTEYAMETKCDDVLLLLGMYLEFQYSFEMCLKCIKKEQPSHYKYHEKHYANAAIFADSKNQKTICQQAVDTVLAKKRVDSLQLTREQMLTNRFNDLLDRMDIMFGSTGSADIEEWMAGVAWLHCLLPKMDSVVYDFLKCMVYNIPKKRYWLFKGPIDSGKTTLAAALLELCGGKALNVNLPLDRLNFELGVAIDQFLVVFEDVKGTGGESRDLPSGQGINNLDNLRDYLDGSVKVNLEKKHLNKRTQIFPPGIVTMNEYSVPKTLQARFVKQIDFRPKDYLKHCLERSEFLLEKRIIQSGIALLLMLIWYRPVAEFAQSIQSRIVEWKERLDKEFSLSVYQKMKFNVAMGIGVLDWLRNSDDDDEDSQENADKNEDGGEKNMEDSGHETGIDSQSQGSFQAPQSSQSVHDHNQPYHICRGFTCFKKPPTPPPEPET

[6] = molecular target: Glucose-6-phosphate 1-dehydrogenase (Homo sapiens, UniProt P11413); assay: human G6PD enzyme inhibitors, dose response, selectivity assay for P. falciparum G6PD inhibitor project, biochemical, fluorescence (AID 504792); assay type: functional
Glucose-6-phosphate 1-dehydrogenase, sequence (P11413 whole entry): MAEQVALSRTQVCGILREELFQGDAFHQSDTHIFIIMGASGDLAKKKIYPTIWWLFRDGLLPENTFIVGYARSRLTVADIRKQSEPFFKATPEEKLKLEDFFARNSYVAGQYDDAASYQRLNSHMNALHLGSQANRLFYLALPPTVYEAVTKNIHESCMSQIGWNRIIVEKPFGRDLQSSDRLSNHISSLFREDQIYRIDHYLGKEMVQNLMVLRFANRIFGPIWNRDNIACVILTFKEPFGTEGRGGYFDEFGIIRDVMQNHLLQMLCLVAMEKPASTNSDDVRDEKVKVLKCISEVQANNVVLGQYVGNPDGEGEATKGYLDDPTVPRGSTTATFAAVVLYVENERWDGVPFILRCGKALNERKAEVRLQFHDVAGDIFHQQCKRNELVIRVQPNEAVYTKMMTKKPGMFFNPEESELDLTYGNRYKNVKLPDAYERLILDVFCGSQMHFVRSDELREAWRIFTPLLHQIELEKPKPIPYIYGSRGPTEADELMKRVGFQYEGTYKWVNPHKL

[7] = molecular target: T3, Bcl-2-related protein A1 (Mus musculus, UniProt Q07440); assay: Bfl-1 inhibitors blocking BH3 peptide binding, confirmation, biochemical, TR-FRET, mouse Bfl-1 (AID 621);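 note: TR-FRET binding of GST-Bfl-1 to FITC-labelled Bid peptide via terbium antibody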
T3 sequence (Q07440 whole entry): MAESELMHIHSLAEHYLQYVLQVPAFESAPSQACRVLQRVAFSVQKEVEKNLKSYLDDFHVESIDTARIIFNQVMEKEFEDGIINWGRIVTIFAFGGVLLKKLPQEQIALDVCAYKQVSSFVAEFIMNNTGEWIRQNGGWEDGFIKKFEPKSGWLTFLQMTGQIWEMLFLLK

[8] = molecular target: T3, Bcl-2-related protein A1; assay: Bfl-1 binding inhibitors, SAR follow-up, biochemical, fluorescence polarization (AID 1070)
[9] = molecular target: T4, Caspase-3 (Homo sapiens, UniProt P42574); assay type: functional;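 note: Dose-response selectivity test against caspase-3 for candidate inhibitors of sentrin-specific proteases (SENPs)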
T4 sequence (P42574 whole entry): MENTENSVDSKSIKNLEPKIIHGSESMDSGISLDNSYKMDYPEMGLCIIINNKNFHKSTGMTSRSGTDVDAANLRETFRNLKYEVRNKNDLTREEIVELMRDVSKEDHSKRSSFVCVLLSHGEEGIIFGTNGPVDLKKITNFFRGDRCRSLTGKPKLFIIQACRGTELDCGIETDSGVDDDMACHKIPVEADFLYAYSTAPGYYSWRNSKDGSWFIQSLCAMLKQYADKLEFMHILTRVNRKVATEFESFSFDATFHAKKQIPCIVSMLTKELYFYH

[10] = molecular target: T5, Sentrin-specific protease 7 (Homo sapiens, UniProt Q9BQF6); assay type: functional;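 note: Luminescence-based dose-response confirmation of ultra-high-throughput screening hits, measuring inhibition of SENP7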
T5 sequence (Q9BQF6 whole entry): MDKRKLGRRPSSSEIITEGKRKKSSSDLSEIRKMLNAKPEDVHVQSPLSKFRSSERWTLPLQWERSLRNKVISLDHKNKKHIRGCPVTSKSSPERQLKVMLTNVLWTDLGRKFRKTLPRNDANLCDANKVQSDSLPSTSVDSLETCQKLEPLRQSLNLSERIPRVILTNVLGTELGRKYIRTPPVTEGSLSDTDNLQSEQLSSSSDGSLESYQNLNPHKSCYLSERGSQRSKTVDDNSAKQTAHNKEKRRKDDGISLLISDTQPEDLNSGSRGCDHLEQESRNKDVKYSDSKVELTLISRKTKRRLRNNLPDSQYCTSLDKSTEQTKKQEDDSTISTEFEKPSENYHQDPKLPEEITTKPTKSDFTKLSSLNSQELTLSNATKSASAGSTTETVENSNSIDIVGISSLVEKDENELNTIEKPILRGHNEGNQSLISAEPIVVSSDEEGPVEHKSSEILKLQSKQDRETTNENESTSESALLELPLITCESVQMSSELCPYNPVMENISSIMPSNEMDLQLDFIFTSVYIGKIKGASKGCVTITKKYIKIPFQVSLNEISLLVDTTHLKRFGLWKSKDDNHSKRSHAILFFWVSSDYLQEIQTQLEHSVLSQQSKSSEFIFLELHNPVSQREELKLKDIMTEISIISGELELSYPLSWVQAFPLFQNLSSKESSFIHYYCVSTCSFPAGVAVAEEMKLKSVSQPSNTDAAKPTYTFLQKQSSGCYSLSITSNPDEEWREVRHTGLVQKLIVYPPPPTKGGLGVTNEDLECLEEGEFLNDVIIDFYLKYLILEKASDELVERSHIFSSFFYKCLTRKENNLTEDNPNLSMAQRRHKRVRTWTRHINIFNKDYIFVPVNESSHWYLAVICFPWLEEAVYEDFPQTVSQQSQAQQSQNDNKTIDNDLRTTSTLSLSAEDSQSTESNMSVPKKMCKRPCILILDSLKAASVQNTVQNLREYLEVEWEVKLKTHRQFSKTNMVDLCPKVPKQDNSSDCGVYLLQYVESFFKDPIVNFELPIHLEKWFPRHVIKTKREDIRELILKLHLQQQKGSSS

[11] = molecular target: T6, Sentrin-specific protease 6 (Homo sapiens, UniProt Q9GZR1); assay type: functional;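 note: Luminescence-based dose-response confirmatory assay of SENP6 inhibition, following up an ultra-high-throughput screen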
T6 sequence (Q9GZR1 whole entry): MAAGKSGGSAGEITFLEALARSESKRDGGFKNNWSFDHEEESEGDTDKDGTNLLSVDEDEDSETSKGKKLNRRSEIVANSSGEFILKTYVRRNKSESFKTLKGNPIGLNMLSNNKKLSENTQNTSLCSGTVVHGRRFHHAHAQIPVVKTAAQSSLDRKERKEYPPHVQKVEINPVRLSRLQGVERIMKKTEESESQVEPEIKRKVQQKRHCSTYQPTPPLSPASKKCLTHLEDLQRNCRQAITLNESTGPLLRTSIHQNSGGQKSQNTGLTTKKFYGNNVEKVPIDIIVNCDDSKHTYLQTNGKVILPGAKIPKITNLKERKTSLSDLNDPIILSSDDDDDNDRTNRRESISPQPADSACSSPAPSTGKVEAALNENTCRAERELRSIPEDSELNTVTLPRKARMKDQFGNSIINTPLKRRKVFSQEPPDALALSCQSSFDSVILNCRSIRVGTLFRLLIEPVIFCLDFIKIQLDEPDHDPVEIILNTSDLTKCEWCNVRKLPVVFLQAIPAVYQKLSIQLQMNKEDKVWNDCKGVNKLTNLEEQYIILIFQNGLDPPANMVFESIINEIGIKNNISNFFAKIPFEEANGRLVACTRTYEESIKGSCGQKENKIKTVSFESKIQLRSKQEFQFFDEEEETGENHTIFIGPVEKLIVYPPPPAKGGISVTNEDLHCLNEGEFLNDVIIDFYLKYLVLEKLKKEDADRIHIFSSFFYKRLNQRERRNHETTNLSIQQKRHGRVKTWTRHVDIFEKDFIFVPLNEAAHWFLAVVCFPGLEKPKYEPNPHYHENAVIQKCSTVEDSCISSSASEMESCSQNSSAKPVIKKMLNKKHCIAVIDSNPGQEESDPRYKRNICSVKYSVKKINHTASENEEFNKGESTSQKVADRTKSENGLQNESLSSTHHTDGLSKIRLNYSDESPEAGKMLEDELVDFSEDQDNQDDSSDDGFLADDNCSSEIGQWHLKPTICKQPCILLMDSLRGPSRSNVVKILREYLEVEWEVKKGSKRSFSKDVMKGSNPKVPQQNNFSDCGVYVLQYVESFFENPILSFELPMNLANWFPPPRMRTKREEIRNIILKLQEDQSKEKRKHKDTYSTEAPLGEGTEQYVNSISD

[12] = molecular target: T7, Sentrin-specific protease 8 (Homo sapiens, UniProt Q96LD8); assay type: functional;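 note: luminescence read-out of SENP8 inhibition, dose-response confirmation following an ultra-high-throughput screen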
T7 sequence (Q96LD8 whole entry): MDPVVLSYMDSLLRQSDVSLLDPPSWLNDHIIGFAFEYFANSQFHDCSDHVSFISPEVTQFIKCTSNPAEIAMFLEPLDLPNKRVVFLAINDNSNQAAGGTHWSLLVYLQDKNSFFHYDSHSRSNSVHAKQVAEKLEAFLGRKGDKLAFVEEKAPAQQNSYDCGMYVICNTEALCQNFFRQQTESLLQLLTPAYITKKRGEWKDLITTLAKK

[13] = molecular target: E3 ubiquitin-protein ligase Mdm2 (Homo sapiens, UniProt Q00987); assay: enhancers of MDM2-luciferase reporter signal, concentration-effect titration, project on inhibitors of MDM2 ubiquitin ligase, cellular assay, luminescent readout, 384-well plate format (AID 1394); assay type: functional;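 note: MDM2 E3 inhibitors raise luminescence so EC50 is for signal enhancement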
E3 ubiquitin-protein ligase Mdm2, sequence (Q00987 whole entry): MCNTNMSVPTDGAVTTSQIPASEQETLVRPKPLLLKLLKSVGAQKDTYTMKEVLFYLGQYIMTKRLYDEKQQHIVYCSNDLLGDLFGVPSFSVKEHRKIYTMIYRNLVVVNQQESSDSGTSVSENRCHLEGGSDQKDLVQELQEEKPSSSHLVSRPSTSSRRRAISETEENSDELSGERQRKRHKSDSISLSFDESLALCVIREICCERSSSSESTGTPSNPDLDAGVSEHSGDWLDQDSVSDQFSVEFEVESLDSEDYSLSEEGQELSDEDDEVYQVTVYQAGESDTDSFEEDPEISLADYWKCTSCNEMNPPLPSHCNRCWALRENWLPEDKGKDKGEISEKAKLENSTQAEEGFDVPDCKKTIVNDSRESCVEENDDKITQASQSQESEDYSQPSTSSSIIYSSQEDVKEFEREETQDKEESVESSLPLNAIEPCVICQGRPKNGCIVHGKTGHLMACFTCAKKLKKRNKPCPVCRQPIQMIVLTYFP

[14] = test system: HEK293; assay: inhibitors of LMP1-driven NF-kB reporter, dose response, cell-based, HEK293, luciferase, cherry-pick (AID 588343); assay type: functional; details: Homo sapiens
[15] = molecular target: T8, Caspase-6 (Homo sapiens, UniProt P55212); assay: human caspase-6 inhibitors, dose response, biochemical, VEID-R110 fluorescence, cherry-pick (AID 720632)
T8 sequence (P55212 whole entry): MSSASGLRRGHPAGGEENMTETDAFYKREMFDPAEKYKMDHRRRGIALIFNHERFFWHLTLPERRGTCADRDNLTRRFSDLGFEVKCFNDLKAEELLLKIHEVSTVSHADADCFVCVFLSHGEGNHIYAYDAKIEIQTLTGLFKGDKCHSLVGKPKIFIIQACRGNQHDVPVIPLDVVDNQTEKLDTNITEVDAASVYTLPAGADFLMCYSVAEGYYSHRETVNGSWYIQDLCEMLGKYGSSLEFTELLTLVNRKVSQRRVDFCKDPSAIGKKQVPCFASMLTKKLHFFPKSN

[16] = molecular target: Glyceraldehyde-3-phosphate dehydrogenase (Homo sapiens, UniProt P04406)
Glyceraldehyde-3-phosphate dehydrogenase, sequence (P04406 whole entry): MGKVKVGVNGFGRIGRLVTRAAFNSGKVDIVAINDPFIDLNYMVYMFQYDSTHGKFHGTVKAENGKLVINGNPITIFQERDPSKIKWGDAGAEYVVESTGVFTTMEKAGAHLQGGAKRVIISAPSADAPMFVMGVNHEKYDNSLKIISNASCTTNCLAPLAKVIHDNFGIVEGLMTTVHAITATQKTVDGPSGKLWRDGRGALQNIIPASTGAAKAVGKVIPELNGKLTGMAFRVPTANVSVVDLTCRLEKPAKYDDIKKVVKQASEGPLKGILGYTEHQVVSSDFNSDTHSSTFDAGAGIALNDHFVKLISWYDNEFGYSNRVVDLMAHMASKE

[17] = test system: H9c2; assay: cells; assay type: functional, cell-based; details: Rattus norvegicus, H9c2, Myocardium;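 note: confirmatory concentration-response retest of ultra-high-throughput screening hits for modulation of myocardial damage; cell death induced by hydrogen peroxide oxidative stress; compound pretreatment for 60 min then peroxide exposure for 2 h; potency is for protecting the cells against peroxide damage rather than for killing them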
[18] = ADAM10 inhibitors, peptide cleavage, dose response, biochemical, QFRET (AID 743254);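 note: ADAM10 enzyme with the DM2 quenched FRET peptide as substrate; EDANS fluorescence gain as the protease cuts the substrate; inhibitor potency against ADAM10 proteolytic activity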
[19] = molecular target: Disintegrin and metalloproteinase domain-containing protein 17 (Homo sapiens, UniProt P78536); assay: ADAM17 protease inhibitors, dose response, counter-screen for ADAM10 exosite inhibitor project, biochemical, quenched FRET substrate (AID 743253)
Disintegrin and metalloproteinase domain-containing protein 17, sequence (P78536 whole entry, the tested form may be a part): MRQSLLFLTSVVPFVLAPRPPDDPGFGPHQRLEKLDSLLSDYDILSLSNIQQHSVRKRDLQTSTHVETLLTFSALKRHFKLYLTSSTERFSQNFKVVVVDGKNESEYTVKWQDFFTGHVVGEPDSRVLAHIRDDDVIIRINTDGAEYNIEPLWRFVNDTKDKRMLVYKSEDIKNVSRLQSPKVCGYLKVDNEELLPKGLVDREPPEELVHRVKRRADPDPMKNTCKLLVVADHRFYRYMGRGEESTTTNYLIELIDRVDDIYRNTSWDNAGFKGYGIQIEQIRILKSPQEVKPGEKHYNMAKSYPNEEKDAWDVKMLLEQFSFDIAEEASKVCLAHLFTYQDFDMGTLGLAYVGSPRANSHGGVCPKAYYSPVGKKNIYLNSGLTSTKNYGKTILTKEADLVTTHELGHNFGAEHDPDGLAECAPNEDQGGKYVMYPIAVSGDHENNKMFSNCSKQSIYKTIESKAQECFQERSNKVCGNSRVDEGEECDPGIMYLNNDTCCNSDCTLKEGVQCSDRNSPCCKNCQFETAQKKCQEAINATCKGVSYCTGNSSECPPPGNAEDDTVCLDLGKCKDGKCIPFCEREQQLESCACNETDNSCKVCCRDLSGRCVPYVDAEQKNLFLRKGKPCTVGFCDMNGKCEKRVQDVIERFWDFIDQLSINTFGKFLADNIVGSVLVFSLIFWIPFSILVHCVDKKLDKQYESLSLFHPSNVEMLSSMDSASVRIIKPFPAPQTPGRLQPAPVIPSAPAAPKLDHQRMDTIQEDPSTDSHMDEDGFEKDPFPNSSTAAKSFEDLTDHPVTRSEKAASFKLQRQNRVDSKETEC

SMILES: CC1Cc2ccccc2N1Cc1cc(=O)n2ccsc2n1 (centres undefined)
- IC50 [1]: > 100 µM (active)

SMILES: O=C(C1Cc2ccccc2CN1S(=O)(=O)c1ccc(F)cc1)N1CCOCC1 (centres undefined)
- AC50 [2]: 23.6 µM (active)

SMILES: CC(=O)N1CCN(c2ccc(NCc3ccc4c(c3)OCO4)cc2)CC1
- IC50 [3]: 12.9 µM (active)
- IC50 [1]: 16.3 µM (active)

SMILES: O=c1c2ccccc2nc(-c2ccco2)n1CCCn1ccnc1
- IC50 [4]: > 31 µM (not active)

SMILES: COCCn1nnnc1C(c1cc2cc(OC)c(OC)cc2[nH]c1=O)N1CCN(c2ccc(O)cc2)CC1 (centres undefined)
- IC50 [5]: 6.67 µM (active)
- IC50 [6]: > 80 µM (inactive)
- IC50 [1]: > 100 µM (active)

SMILES: COC(=O)c1ccccc1NC(=O)COC(=O)CSCC(=O)N1CCOCC1
- IC50 [4]: > 93.1 µM (not active)

SMILES: Cc1ccc(-n2nnc(-c3cccnc3Cl)n2)cc1
- IC50 [7]: > 100 µM (not active)
- IC50 [8]: > 100 µM (not active)
- IC50 [9]: 9.03 µM (active)
- IC50 [10]: 3.18 µM (active)
- IC50 [11]: 4.03 µM (active)
- IC50 [12]: > 100 µM (inactive)

SMILES: Cc1ccc(C)c(N2CCN(S(=O)(=O)c3ccc4c(c3)CC(=O)N4C)CC2)c1
- AC50 [2]: > 30 µM (inactive)

SMILES: CC(C)c1ccc(OCc2cccc(C(=O)N/N=C/c3cccnc3)c2)cc1
- EC50 [13]: 20 nM (active)
- AC50 [14]: 980 nM (active)

SMILES: Cc1ccc(NC(=O)c2noc3c2CCC3)cc1C
- AC50 [15]: 5.83 µM (active)

SMILES: CN(C)C1=C(Cl)C(=O)N(c2cccc([N+](=O)[O-])c2)C1=O
- IC50 [16]: > 100 µM (not active)
- IC50 [7]: > 100 µM (not active)
- IC50 [8]: 2.3 µM (active)

SMILES: CCC(C)N1C(=O)N(C)C2NC(=O)NC21 (centres undefined)
- AC50 [2]: 2.23 µM (active)

SMILES: CCN1CCN(C2=C(Cl)C(=O)N(c3ccc(Cl)c(Cl)c3)C2=O)CC1
- IC50 [16]: > 100 µM (not active)
- IC50 [7]: 0.97 µM (active)
- IC50 [8]: 1.67 µM (active)

SMILES: O=C(NO)c1ccc(C(=O)N(C2CCCCC2)C2CCCCC2)cc1
- IC50 [17]: > 79 µM (inactive)
- IC50 [18]: 14.6 µM (inactive)
- IC50 [19]: 34.9 µM (inactive)
